Experiments:
Assay type in all cases: cell-based
[1] = system: AAV producer cells (HEK293 cells); assay: AAV productivity with culture media additives supplemented two hours post-transfection (shake flasks)
Method: For each parameter tested, HEK293 cells were expanded by shake flask culture with a target seed density of >0.25E6 viable cells/mL and a target final density of <6E6 viable cells/mL. […]
(§1) Cell transfection was performed generally as described in Grieger et al. (2016) Molecular Therapy 24(2): 287-297. Briefly, transfection mixes were prepared by mixing calculated volumes of vector(s), transfection media, and polyethylenimine (PEI), all at ambient temperature, and allowed to equilibrate before the transfection mixes were added to the cells. Post-transfection bioreactor setpoint shifts were performed 2 hours post-transfection, and cells were harvested 72 hours post-transfection. […] Productivity was measured by vector genome titer and capsid yield. Vector genome (VG) titer was determined by droplet digital PCR (ddPCR) by standard methods using primer/probe sets specific to the transgene payload of the vector comprising the transgene. Capsid yield was determined using enzyme-linked immunosorbent assays (ELISAs) by standard methods with an immobilized antibody directed against an epitope of the capsid as encoded by the vector comprising the capsid sequences. Percentage of intact vector genomes (% Full capsids) was calculated by dividing the vector genome productivity determined by ddPCR by the number of capsids determined by ELISA. […]

[2] = system: AAV producer cells (HEK293 cells); assay: DMSO time course analysis of AAV productivity; settings: 1.5% (v/v) DMSO added two hours pre-transfection and up to 30 minutes post-transfection; compared to the other time points tested
Method: For each parameter tested, HEK293 cells were expanded by shake flask culture with a target seed density of >0.25E6 viable cells/mL and a target final density of <6E6 viable cells/mL. Expanded cells were inoculated into an Applikon 3 L Glass Bioreactor containing the appropriate amount of cell culture medium prior to transfection at a 2 L working volume.
as §1, with “cells.” for “cells. Post-transfection bioreactor setpoint shifts were performed 2 hours post-transfection, and cells were harvested 72 hours post-transfection.”

second HEK293 cell line [3] = assay: AAV productivity with DMSO supplementation 30-120 minutes post-transfection, 3 L single-use bioreactors; settings: DMSO 120 minutes vs 30 minutes post-transfection, pH 7.0, 39° C.
Method: (§2) Cell transfection was performed generally as described in Grieger et al. (2016) Molecular Therapy 24(2): 287-297. Briefly, transfection mixes were prepared by mixing calculated volumes of vector(s), transfection media, and polyethylenimine (PEI), all at ambient temperature, and allowed to equilibrate before the transfection mixes were added to the cells. Post-transfection bioreactor setpoint shifts were performed 2 hours post-transfection, and cells were harvested 72 hours post-transfection. Harvested cells were lysed as described in Grieger et al. (2016) Molecular Therapy 24(2): 287-297. Crude lysate samples were collected following centrifugation to remove cellular debris. Productivity was measured by vector genome titer and capsid yield. Vector genome (VG) titer was determined by droplet digital PCR (ddPCR) by standard methods using primer/probe sets specific to the transgene payload of the vector comprising the transgene. Capsid yield was determined using enzyme-linked immunosorbent assays (ELISAs) by standard methods with an immobilized antibody directed against an epitope of the capsid as encoded by the vector comprising the capsid sequences. Percentage of intact vector genomes (% Full capsids) was calculated by dividing the vector genome productivity determined by ddPCR by the number of capsids determined by ELISA.
Based on the findings above, the effects of post-transfection pH, and the effect of supplementing the culture media with DMSO at 30-120 minutes post-transfection were further tested using a different representative AAV particle. Experiments were performed with a second HEK293 cell line according to the methods described in Examples 1 and 5 using 3 L single-use bioreactors.
AAV productivity, in terms of vector genome (VG) titer (FIG. 8A), capsid yield (FIG. 8B), and percent intact vector genomes (% Full; FIG. 8C), was measured as described in Example 1.

second HEK293 cell line [4] = assay: AAV productivity at different DMSO concentrations, shake flasks
Method: as §2
The conditions of DMSO supplementation were further tested using different representative AAV particles. Experiments were performed with a second HEK293 cell line according to the methods described in Example 1 using shake flasks.
AAV productivity, in terms of vector genome (VG) titer (FIGS. 9A and 10A), capsid yield (FIGS. 9B and 10B), and percent intact vector genomes (% Full; FIGS. 9C and 10C), was measured as described in Example 1.

C[S+](C)[O-] [DMSO, dimethyl sulfoxide]
percent full capsids ([1]; DMSO added two hours post-transfection, compared to the other additives): higher percent full capsids
VG titer ([1]; additive added two hours post-transfection, all tested concentrations (Table 5), over control conditions without additive, ddPCR, crude lysate): general increase
percent yield of full capsids [2]: higher percent yield of full capsids
VG titers (second HEK293 cell line [3]): similar
capsid yields (second HEK293 cell line [3]): similar
intact vector genomes (second HEK293 cell line [3]): similar
VG titer (second HEK293 cell line [4]; FIG. 9A, 0.5% to 2.25% DMSO two hours post-transfection, up to a DMSO concentration of 1.5%): increased
capsid titer (second HEK293 cell line [4]; FIG. 9B, 0.5% to 2.25% DMSO two hours post-transfection, up to a DMSO concentration of 1.5%): increased or comparable
percent full capsids (second HEK293 cell line [4]; FIG. 9C, 0.5% to 2.25% DMSO two hours post-transfection): increased
VG titer (second HEK293 cell line [4]; FIG. 10A, 0.75% DMSO two hours post-transfection compared with 0% DMSO): increased
VG titer (second HEK293 cell line [4]; FIG. 10A, 1.5% DMSO two hours post-transfection compared with 0.75% DMSO): comparable
capsid titer (second HEK293 cell line [4]; FIG. 10B, 0.75% DMSO two hours post-transfection compared with 0% DMSO): increased
capsid titer (second HEK293 cell line [4]; FIG. 10B, 1.5% DMSO two hours post-transfection compared with 0.75% DMSO): decreased
percent full capsids (second HEK293 cell line [4]; FIG. 10C, 0.75% DMSO two hours post-transfection compared with 0% DMSO): comparable
percent full capsids (second HEK293 cell line [4]; FIG. 10C, 1.5% DMSO two hours post-transfection compared with 0.75% DMSO): increased

From patent publication US20230279433A1, “METHODS AND COMPOSITIONS FOR THE PRODUCTION OF ADENO-ASSOCIATED VIRUS” (priority 2021, published 2023)
